From US12365651B2, “Use of pirfenidone and derivatives for modulation of B lymphocyte activity and organ protection from acute tissue damage” (Washington University, priority 2017, dated 2025)
Values joined by “and” are separate entries in the source; they are usually repeats but may differ in a detail not shown here. Equal entries are not always repeated.

Assays:
[1] = Plasma pharmacokinetics after IV or PO administration; assay type: in vivo; conditions: SD Rat, 96 mg/kg
[2] = test system: Peritoneal derived inflammatory cells; assay: In vitro immunomodulatory effect of tested PEG compounds (CD86 on CD19+ cells, LPS); assay type: cell-based, mouse; conditions: potency in molarity; toxicity by visual inspection and DAPI staining (FIG. 11D)
Description: Peritoneal derived inflammatory cells were collected on day for post intraperitoneal injection of Thyoglicollate. Cells were cultured for 24 h in baseline condition (control), in the presence of LPS 100 ng/ml (LPS) or in the presence of LPS 100 ng/ml and various concentrations of different forms of Pegylated Pirfenidone (named C2 and C3 in FIG. 11A and C4 to C6 in FIG. 11B)). After the 24 h in culture cells were collected and analyzed via flow cytometry to assess the expression of CD86 on CD19+ cells (B lymphocytes). […] FIG. 11C reports the molecular weights of the tested forms of PEGylated Pirfenidone and the molecular weight (MW) ration between the tested compound and Pirfenidone).

[3] = Plasma pharmacokinetics after IV or PO administration; assay type: in vivo, SD Rat
Description: Pirfenidone and Pegyonde-6 were administered at equimolar concentrations to rats IV or per os (PO) and serum concentrations measured at different time points to measure pharmacokinetic parameters. The drugs were solubilized in 5% Alcohol+20% PEG 300 in saline.

[4] = SD Rat, IV 96 mg/kg, individual rats 4-6, 96 mg/kg
[5] = SD Rat, PO 96 mg/kg, individual rats 10-12, 96 mg/kg

SMILES: COCCOCCOCCOCCOCCOCc1ccc(-n2cc(C)ccc2=O)cc1 [PEG-Pirfenidone]
- Plasma concentrations of PEG-Pirfenidone ([1]; IV 96 mg/kg, 0.083 h, individual rats 4-6): 44.227 µg/mL and 56.484 µg/mL and 96.487 µg/mL
- Plasma concentrations of PEG-Pirfenidone ([1]; IV 96 mg/kg, 0.5 h, individual rats 4-6): 13.073 µg/mL and 18.584 µg/mL and 19.79 µg/mL
- Plasma concentrations of PEG-Pirfenidone ([1]; PO 96 mg/kg, 2 h, individual rats 10-12): 0.219 µg/mL and 0.885 µg/mL and 0.217 µg/mL
- relative potency to Pirfenidone and in vitro toxicity [2]: superior to the other tested variants
- AUC0-t, Mean ([3]; SD Rat, IV 96 mg/kg): 34.197 µg·h/mL
- AUC0-∞, Mean ([3]; SD Rat, IV 96 mg/kg): 34.229 µg·h/mL
- AUMC0-t, Mean ([3]; SD Rat, IV 96 mg/kg): 18176 h*h*ng/mL
- AUMC0—∞, Mean ([3]; SD Rat, IV 96 mg/kg): 18540 h*h*ng/mL
- CL(/F), Mean ([3]; SD Rat, IV 96 mg/kg): 2.923 L/h/kg
- Cmax, Mean ([3]; SD Rat, IV 96 mg/kg): 65.733 µg/mL
- MRTINF, Mean ([3]; SD Rat, IV 96 mg/kg): 33.8 min
- T1/2, Mean ([3]; SD Rat, IV 96 mg/kg): 79.8 min
- Tmax, Mean ([3]; SD Rat, IV 96 mg/kg): 4.98 min
- Vss (/F), Mean ([3]; SD Rat, IV 96 mg/kg): 1.7 L/kg
- Plasma concentrations of PEG-Pirfenidone, Mean ([3]; SD Rat, IV 96 mg/kg, 0.083 h): 65.733 µg/mL
- Plasma concentrations of PEG-Pirfenidone, Mean ([3]; SD Rat, IV 96 mg/kg, 0.25 h): 41.336 µg/mL
- Plasma concentrations of PEG-Pirfenidone ([3]; SD Rat, IV 96 mg/kg, 0.25 h, individual rats 4-6, 96 mg/kg): 27.605 µg/mL and 35.059 µg/mL and 61.343 µg/mL
- Plasma concentrations of PEG-Pirfenidone, Mean ([3]; SD Rat, IV 96 mg/kg, 0.5 h): 17.149 µg/mL
- Plasma concentrations of PEG-Pirfenidone, Mean ([3]; SD Rat, IV 96 mg/kg, 1 h): 6.09 µg/mL
- Plasma concentrations of PEG-Pirfenidone ([3]; SD Rat, IV 96 mg/kg, 1 h, individual rats 4-6, 96 mg/kg): 5.974 µg/mL and 6.543 µg/mL and 5.755 µg/mL
- Plasma concentrations of PEG-Pirfenidone, Mean ([3]; SD Rat, IV 96 mg/kg, 2 h): 1.533 µg/mL
- Plasma concentrations of PEG-Pirfenidone ([3]; SD Rat, IV 96 mg/kg, 2 h, individual rats 4-6, 96 mg/kg): 1.786 µg/mL and 2.091 µg/mL and 0.721 µg/mL
- Plasma concentrations of PEG-Pirfenidone, Mean ([3]; SD Rat, IV 96 mg/kg, 4 h): 0.183 µg/mL
- Plasma concentrations of PEG-Pirfenidone ([3]; SD Rat, IV 96 mg/kg, 4 h, individual rats 4-6, 96 mg/kg): 0.216 µg/mL and 0.156 µg/mL and 0.178 µg/mL
- Plasma concentrations of PEG-Pirfenidone, Mean ([3]; SD Rat, IV 96 mg/kg, 8 h): 0.0203 µg/mL
- Plasma concentrations of PEG-Pirfenidone ([3]; SD Rat, IV 96 mg/kg, 8 h, individual rats 4-6, 96 mg/kg): 0.0129 µg/mL and 0.0115 µg/mL and 0.0363 µg/mL
- Plasma concentrations of PEG-Pirfenidone, Mean ([3]; SD Rat, IV 96 mg/kg, 24 h): 0.00297 µg/mL
- Plasma concentrations of PEG-Pirfenidone ([3]; SD Rat, IV 96 mg/kg, 24 h, individual rats 4-6, 96 mg/kg): BLOQ (Below lower limit of quantification (1 ng/mL)) (2×) and 2.97 ng/ml
- Tmax ([3]; SD Rat, IV 96 mg/kg, individual rats 4-6): 4.98 min
- AUC0-t [3, 4]: 26.338 µg·h/mL and 32.96 µg·h/mL and 43.292 µg·h/mL
- AUC0-∞ [3, 4]: 26.353 µg·h/mL and 32.968 µg·h/mL and 43.367 µg·h/mL
- AUMC0-t [3, 4]: 16980 h*h*ng/mL and 20439 h*h*ng/mL and 17108 h*h*ng/mL
- AUMC0—∞ [3, 4]: 17118 h*h*ng/mL and 20640 h*h*ng/mL and 17863 h*h*ng/mL
- CL(/F) [3, 4]: 3.643 L/h/kg and 2.912 L/h/kg and 2.214 L/h/kg
- Cmax [3, 4]: 44.227 µg/mL and 56.484 µg/mL and 96.487 µg/mL
- MRTINF [3, 4]: 39 min and 37.6 min and 24.7 min
- T1/2 [3, 4]: 48.2 min and 106 min and 85.8 min
- Vss (/F) [3, 4]: 2.366 L/kg and 1.823 L/kg and 0.912 L/kg
- AUC0-t, Mean ([3]; SD Rat, PO 96 mg/kg): 16.811 µg·h/mL
- AUC0-∞, Mean ([3]; SD Rat, PO 96 mg/kg): 16.838 µg·h/mL
- AUMC0-t, Mean ([3]; SD Rat, PO 96 mg/kg): 10264 h*h*ng/mL
- AUMC0—∞, Mean ([3]; SD Rat, PO 96 mg/kg): 10527 h*h*ng/mL
- Cmax, Mean ([3]; SD Rat, PO 96 mg/kg): 23.584 µg/mL
- MRTINF, Mean ([3]; SD Rat, PO 96 mg/kg): 37.6 min
- T1/2, Mean ([3]; SD Rat, PO 96 mg/kg): 70.8 min
- Tmax, Mean ([3]; SD Rat, PO 96 mg/kg): 15 min
- F % ([3]; SD Rat, PO 96 mg/kg vs IV 96 mg/kg): 49.16%
- Plasma concentrations of PEG-Pirfenidone, Mean ([3]; SD Rat, PO 96 mg/kg, 0.25 h): 23.584 µg/mL
- Plasma concentrations of PEG-Pirfenidone ([3]; SD Rat, PO 96 mg/kg, 0.25 h, individual rats 10-12, 96 mg/kg): 8.298 µg/mL and 40.817 µg/mL and 21.638 µg/mL
- Plasma concentrations of PEG-Pirfenidone, Mean ([3]; SD Rat, PO 96 mg/kg, 0.5 h): 19.224 µg/mL
- Plasma concentrations of PEG-Pirfenidone ([3]; SD Rat, PO 96 mg/kg, 0.5 h, individual rats 10-12, 96 mg/kg): 3.977 µg/mL and 35.217 µg/mL and 18.477 µg/mL
- Plasma concentrations of PEG-Pirfenidone, Mean ([3]; SD Rat, PO 96 mg/kg, 1 h): 3.748 µg/mL
- Plasma concentrations of PEG-Pirfenidone ([3]; SD Rat, PO 96 mg/kg, 1 h, individual rats 10-12, 96 mg/kg): 1.157 µg/mL and 7.033 µg/mL and 3.053 µg/mL
- Plasma concentrations of PEG-Pirfenidone, Mean ([3]; SD Rat, PO 96 mg/kg, 2 h): 0.44 µg/mL
- Plasma concentrations of PEG-Pirfenidone, Mean ([3]; SD Rat, PO 96 mg/kg, 4 h): 0.069 µg/mL
- Plasma concentrations of PEG-Pirfenidone ([3]; SD Rat, PO 96 mg/kg, 4 h, individual rats 10-12, 96 mg/kg): 0.0284 µg/mL and 0.129 µg/mL and 0.0488 µg/mL
- Plasma concentrations of PEG-Pirfenidone, Mean ([3]; SD Rat, PO 96 mg/kg, 8 h): 0.014 µg/mL
- Plasma concentrations of PEG-Pirfenidone ([3]; SD Rat, PO 96 mg/kg, 8 h, individual rats 10-12, 96 mg/kg): 0.00309 µg/mL and 0.0334 µg/mL and 0.00616 µg/mL
- Plasma concentrations of PEG-Pirfenidone ([3]; SD Rat, PO 96 mg/kg, 24 h, individual rats 10-12): BLOQ (Below lower limit of quantification (1 ng/mL))
- Tmax ([3]; SD Rat, PO 96 mg/kg, individual rats 10-12): 15 min
- AUC0-t [3, 5]: 4.853 µg·h/mL and 30.468 µg·h/mL and 15.112 µg·h/mL
- AUC0-∞ [3, 5]: 4.858 µg·h/mL and 30.533 µg·h/mL and 15.123 µg·h/mL
- AUMC0-t [3, 5]: 3178 h*h*ng/mL and 19172 h*h*ng/mL and 8441 h*h*ng/mL
- AUMC0—∞ [3, 5]: 3221 h*h*ng/mL and 19815 h*h*ng/mL and 8544 h*h*ng/mL
- Cmax [3, 5]: 8.298 µg/mL and 40.817 µg/mL and 21.638 µg/mL
- MRTINF [3, 5]: 39.8 min and 38.9 min and 33.9 min
- T1/2 [3, 5]: 60.6 min and 80.4 min and 71.4 min
- half-life compared with Pirfenidone ([3]; rats, equimolar, after both IV and PO administration): longer half-life than Pirfenidone
